According to patent publication US8999938B2, “Ophthalmic lipophilic drug delivery vehicle formulations” (GNT, LLC, priority 2013, dated 2015):
Like-named read-outs stand apart in the source and are kept apart here.

Tests used:
[1] = for max soluble concentration: in water
From the text: The solubility of α-2 agonists, in particular, decreases exponentially at an increased pH.

[2] = From the text: Oily vehicles such as castor oil solubilize, but these have poor compliance.

max soluble concentration ([1]; pH solution 6.0): 0.195%
max soluble concentration ([1]; pH solution 6.4): 0.060%
max soluble concentration ([1]; pH solution 7.0): 0.023%
max soluble concentration ([1]; pH solution 7.4): 0.015%
max soluble concentration ([1]; pH solution 8.0): 0.013%
degree of solubility ([1]; pH of 4.0 to 6.0): very high degree of solubility
concentration solubilized in the provided compositions [2]: ≥ 0.15%
SMILES: Cc1cccc([C@H](C)c2cnc[nH]2)c1C [dexmedetomidine]
